Key:
Format in all cases: cell-based
DU145 [1] = test: Colony formation assay, DU145; conditions: 1 or 2 µM, vs vehicle
Experimental: This assay was performed as previously described. The DU145 and PC-3 cells were incubated with RP-010 (1 or 2 µM) for 24 h. […], the medium was discarded and cells were trypsinized with 0.25% trypsin, 2.21-mM EDTA, and then harvested, counted, and reseeded in 6-well plates at a low density (500 cell/well). The cells were allowed to form colonies for 10–14 days at 37 °C, with the medium being changed every other day. Subsequently, methanol was used to fix the colonies formed in each plate, followed by staining the colonies with 0.1% crystal violet dye for 30 min. Finally, colonies were viewed and counted under an EVOS microscope (Themo Fisher Scientific, Wayne, MI, USA). The colony formation rate equation was applied for each compound: Colony formation rate = the number of colonies/numbers of seeded cells × 100%.

DU145 [2] = test: Cell cycle analysis (PI, flow cytometry), DU145; conditions: vs vehicle
Experimental: The effect of RP-010 on the cell cycle phases and function was determined using cell cycle analysis with PI staining, followed by flow cytometry. The cells were incubated with either vehicle or RP-010 (0.5, 1 or 2 µM) for 24 h. After incubation overnight, the cells were collected, washed and resuspended as an ice-cold PBS suspension. The DNA was stained with PI for at least 15 min on ice. A FACS Calibur flow cytometer from BD Biosciences (San Jose, CA, USA) was used to determine the distribution of the cells following incubation with vehicle or RP-010. Finally, the data were viewed and analysed using FlowJo v10.2 software from FlowJo LLC (Ashland, OR, USA).

DU145 [3] = test: Transwell migration assay, DU145; conditions: 0.5, 1 or 2 μM, 24 h
Experimental: The assay was done as previously described. The effect of RP-010, (0.5, 1 or 2 µM) on the migration of PC cells was tested using 24 trans-well inserts with an […] pore size. The addition of the insert to the well forms two chambers (upper and lower), where the upper chamber was used to grow the cells on the porous membrane. The lower chamber was filled with 600-μL cell-free DMEM medium. 200-μL of the cell suspension was added to each insert, and cells allowed to attach for 1 h. The test compound was added in different concentrations and incubated with the cells for 24 h. […] Finally, the remaining migrated cells were fixed by methanol, and stained with 0.1% crystal violet dye and counted with an EVOS microscope. The number of migrated cells was counted for the cultures incubated with vehicle or RP-010.

COc1ccc(-c2nc3sc4c(c3c(=O)[nH]2)CCCC4)cc1 [RP10]
Size of the colonies (DU145 [1]): significantly decreased
Colony formation (DU145 [1]; p < 0.01): significantly decreased
Cell cycle distribution, G1 phase (DU145 [2]; 0.5, 1 or 2 µM): significant shift from G1 phase
Cell cycle distribution, G2 phase (DU145 [2]; 1 or 2 µM, p < 0.05): significantly accumulated in the G2 phase
Number of cells migrating across the membrane (transwell) (DU145 [3]): significantly decreased

Source: PMC6563099, “Novel Thienopyrimidine Derivative, RP-010, Induces β-Catenin Fragmentation and Is Efficacious against Prostate Cancer Cells” (Cancers, 2019)
